Reference: ChEMBL document CHEMBL1158247, “Isolation of Isodrimenediol, a Possible Intermediate of Drimane Biosynthesis from Polyporus arcularius” (1996)
Converted amounts (≈) assume the structure as drawn.

What was measured:
Staphylococcus aureus = assay: Antimicrobial activity against Staphylococcus aureus SG511 by agar diffusion method; type: functional
[1] = test system: Sporobolomyces salmonicolor; assay: Antimicrobial activity against Sporobolomyces salmonicolor 549 by agar diffusion method; type: functional

C=C1CC[C@H]2C(C)(C)[C@@H](O)CC[C@]2(C)[C@H]1CO [ISODRIMENEDIOL]
MIC (Staphylococcus aureus): 10 µg/mL (≈ 42 µM) | MIC [1]: 5 µg/mL (≈ 21 µM)
